Each structure is given as a SMILES string.

The data set deals with Wister rats. The data set is described as follows: Liver fibrosis rat model: biochemical functional indexes of cardiac blood. It is filed as in vivo. The note with it: 200 mg/kg TAA i.p. once every three days for 60 days, cardiac blood 4 days after last injection. As for the experimental part:
200 mg/kg of thioacetamide (TAA) was intraperitoneally injected to 8-week-old male Wister rats (n=35) once every three days for 60 days (i.e., 20 injections in total) to obtain a liver fibrosis rat model (hereinafter referred to as the “TAA group” rat). Additionally, rats that injected with equal volume of normal saline but not TAA were served as a “control group” (n=12). At 4 days after the last injection, four rats in the “control group” and three rats in the “TAA group” were anesthetized with ether and analyzed by the following experiments.
The cardiac blood of the “control group” and “TAA group” rats was collected and measured by a biochemical analyzer (Roche, Integra 800) to analyze the biochemical functional indexes, and thereby, evaluating the extent of hepatic damage. The biochemical functional indexes include the expression level of glutamate oxaloacetate transaminase (GOT), the expression level of glutamate pyruvate transaminase (GPT), the expression level of albumin, the expression level of total bilirubin, and prothrombin time.

The molecule `CC(=N)S` [TAA, thioacetamide] yielded an Albumin of 2.8 ± 0.4 g/dL, a GOT of 546 ± 48 Units/L, a GPT of 138 ± 47 Units/L and a Prothrombin time of 16.4 ± 3.0 s. For the same molecule, the Total bilirubin was 0.049 ± 0.009 mg/dL.

The values are drawn from patent publication US11020358B2, “Method for the anti-senescence of and/or rejuvenating stem cells” (GWO XI STEM CELL APPLIED TECHNOLOGY CO., LTD., priority 2014, dated 2021).
